In patent US6265418A, “N-acylamino acid amide compounds and intermediates for preparation thereof” (Ube Industries, Ltd., priority 1997, dated 2001):
Where two headings read alike, the source gives them in different places.

What was measured:
[1] = tested on: platelet aggregation induced by ADP; experiment: ADP (adenosine diphosphate) induced-platelet aggregation inhibiting activity (in vitro, platelet-rich plasma); format: cell-based, human (healthy volunteer); conditions: ADP final concentration 10 μM, 37° C., pre-incubation 5 minutes, prime (') = converted into carboxylic acid compound before test, read-out: in vitro Platelet aggregation inhibition activity IC50
Procedure: ADP (adenosine diphosphate) induced-platelet aggregation inhibiting activity
(1) Preparation Method of Platelet-rich Plasma
By using 0.1 volume of 3.8% sodium citrate as an anticoagulant, citrate-added blood collected from an elbow vein of a healthy volunteer was centrifuged at 500×g (=1600 rpm) for 3 minutes and the supernatant was fractionated as platelet-rich plasma (PRP). The under layer was further centrifuged at 1800×g (3200 rpm) for 15 minutes and the supernatant was fractionated as platelet-poor blood plasma (PPP) and used for ADP aggregation (coagulation) measurement.
(2) Measurement Method of ADP-induced Platelet Aggregation
PRP obtained as mentioned above was diluted by the platelet-poor plasma (PPP) to adjust the number of platelet to 30 to 40×10^4 /μL, and platelet aggregation induced by ADP was measured by using an aggrigometer (available from NBS Co., Hematracer Va.). First, 185 μL of PRP was placed in a glass cuvette for exclusive use, 5 μL of a test compound solution or a solvent (control) for preparing test compound was added thereto, and the mixture was pre-incubated while stirring (1000 ppm) at 37° C. for 5 minutes. Thereafter, 10 μL (final concentration 10 μM) of an ADP solution was added thereto to induce platelet aggregation. Change in transmittance caused by platelet aggregation was recorded for 3 minutes after addition of ADP.
Transmittances of PRP and PPP were made 0 and 100%, respectively, and the maximum transmittance after adding ADP was made the maximum aggregation ratio. The maximum aggregation ratio when the test compound was added divided by that ratio when the solvent for preparation was added was shown in terms of a percentage, and a 50% inhibiting concentration (IC50) was calculated.
Incidentally, when the test compound has a protected carboxyl group, the sample was applied to the test after carrying out the following deprotection treatment. First, the test compound was dissolved in ethanol, and hydrolyzed (at room temperature for 2 hours) by adding an equal volume of a 0.1 N aqueous sodium hydroxide solution. Then, the solution was neutralized by adding a 0.1 N aqueous hydrochloric acid solution, and the resulting solution was diluted by using a preparation solvent (composition: ethanol/0.1 N aqueous sodium hydroxide solution/0.1 N aqueous hydrochloric acid solution=1/1/1) to a predetermined concentration to make a test compound solution.

[2] = tested on: platelet aggregation induced by ADP and epinephrine; experiment: Ex vivo ADP induced-platelet aggregation inhibiting activity after oral administration to dogs; format: in vivo; conditions: beagle dogs, ADP 10 μM + epinephrine 1 μM
Procedure: (§1) Ex Vivo ADP Induced-platelet Aggregation Inhibiting Activity
As a test animal, 2 to 3 beagle dogs were used as one group.
(§2) Test compounds were suspended in a dimethylsulfoxide: 0.5% aqueous sodium carboxymethylcellulose solution (=1:99) and orally administered. To the animals for control group, a dimethylsulfoxide: 0.5% aqueous sodium carboxymethylcellulose solution (=1:99) containing no test compound was orally administered.
(§3) With regard to the respective groups, 5 ml of blood was each collected from cervical vein at the predetermined times before and after administration of the test compound by using a syringe to which 3.8% of sodium citrate was added. The resulting citrate-added blood was centrifuged at 80×g (=700 rpm) for 10 minutes, and then, the supernatant was fractionated as platelet-rich plasma (PRP). The under layer was further centrifuged at 2000×g (3200 rpm) for 10 minutes and the supernatant was fractionated as platelet-poor plasma (PPP) and used for ADP aggregation (coagulation) measurement.
(§4) PRP was diluted by PPP to adjust the number of platelet to 30 to 40×10^4 /μL, and platelet aggregation induced by ADP was measured by using an aggrigometer (available from NBS Co., Hematracer 801). First, 190 μL of PRP was placed in a glass cuvette for exclusive use and pre-incubated while stirring (1000 ppm) at 37° C. for 5 minutes. Thereafter, 10 μL of an ADP solution (final concentration 10 μM) and an epinephrine solution (final concentration 1 μM) was added thereto to induce platelet aggregation. Change in transmittance caused by platelet aggregation was recorded for 3 minutes after addition of ADP.
(§5) Transmittances of PRP and PPP were made 0 and 100%, respectively, and the maximum transmittance after adding ADP was made the maximum aggregation ratio.
(§6) The platelet aggregation inhibiting ratio was shown in terms of a percentage of the maximum aggregation ratio when the test compound was added divided by the maximum aggregation ratio when the solvent for preparation was added.

fibrinogen receptor = conditions: reported in Thrombosys, Res., 56, 6, 687 (1989); cited from earlier work
platelet aggregation = conditions: reported in Thrombosys, Res., 56, 6, 687 (1989); cited from earlier work
[3] = tested on: platelet aggregation induced by ADP; experiment: Ex vivo ADP induced-platelet aggregation inhibiting activity after oral administration to monkeys; format: in vivo; conditions: cynomolgus monkeys, ADP 20 μM
Description: as §1
As a test animal, 2 to 3 monkeys (cynomolgus monkeys) born in China were used as one group.
as §2
as §3, with “femoral” for “cervical”, “platelet rich” for “platelet-rich”
as §4, with “by using a nephelometric platelet aggregation meter (available from” for “by using an aggrigometer (available from”, “10 μL (final concentration 20 μM) of an” for “10 μL of an”, “ADP solution was added” for “ADP solution (final concentration 10 μM) and an epinephrine solution (final concentration 1 μM) was added”
as §5, §6

Molecule `N=C(N)c1ccc(C(=O)N[C@@H](Cc2ccc([N+](=O)[O-])cc2)C(=O)N2CCc3sc(CC(=O)O)cc3C2)cc1` [Example I-5, 5-[N-(4-amidinobenzoyl)-L-4-nitrophenylalanyl]-4,5,6,7-tetrahydrothieno[3,2-c]pyridin-2-acetic acid.trifluoroacetate] has an IC50 ([1]; Homo sapiens, Platelet) of 30 nM.

For `N=C(N)c1ccc(C(=O)N[C@@H](Cc2ccc([N+](=O)[O-])cc2)C(=O)N2CCc3nn(CC(=O)O)cc3C2)cc1` [Example I-79, 5-[N-(4-amidinobenzoyl)-L-4-nitrophenylalanyl]-4,5,6,7-tetrahydropyrazolo[4,3-c]pyridin-2-acetic acid.trifluoroacetate], the IC50 ([1]; Homo sapiens, Platelet) was 20 nM.

In the case of `CCOC(=O)Cn1cc2c(n1)CCN(C(=O)[C@H](Cc1ccc([N+](=O)[O-])cc1)NC(=O)c1ccc(C(=N)NO)cc1)C2` [Example I-85, Ethyl 5-[N-[4-(N-hydroxyamidino)benzoyl]-L-4-nitrophenylalanyl]-4,5,6,7-tetrahydropyrazolo[4,3-c]pyridin-2-acetate], the “ex vivo Platelet aggregation inhibiting ratio” value ([2]; 0.3 mg/kg p.o., 1 hr) is reported as 61%, the “ex vivo Platelet aggregation inhibiting ratio” value ([2]; 0.3 mg/kg p.o., 4 hr) is reported as 94% and the “ex vivo Platelet aggregation inhibiting ratio” value ([2]; 0.3 mg/kg p.o., 8 hr) is reported as 41%.

For “Arg-Gly-Asp-Ser (RGDS; printed: Arg-Gly-Asp-Ser) [peptide derivative such as Arg-Gly-Asp-Ser (hereinafter abbreviated to as RGDS)]”, the IC50 [1] is listed as 4000 nM, the “antagonistic action against a fibrinogen receptor” value (fibrinogen receptor) is listed as “antagonistic action against a fibrinogen receptor” and the “platelet aggregation inhibiting action” value (platelet aggregation) is listed as “platelet aggregation inhibiting action”.

In the case of `CCOC(=O)Cn1cc2c(n1)CCN(C(=O)[C@H](Cc1ccc([N+](=O)[O-])cc1)NC(=O)c1ccc(C(=N)N)cc1)C2` [Example I-76, Ethyl 5-[N-(4-amidinobenzoyl)-L-4-nitrophenylalanyl]-4,5,6,7-tetrahydropyrazolo[4,3-c]pyridin-2-acetate.trifluoroacetate], the “platelet aggregation inhibiting activities even in oral administration” value [3] is reported as “excellent platelet aggregation inhibiting activities” and the sustained activity [3] is reported as “excellent sustained activity”.

`C[C@H](NC(=O)c1ccc(C(=N)N)cc1)C(=O)N1CCc2nn(CC(=O)O)cc2C1` [Example I-126, 5-[N-(4-amidinobenzoyl)-L-alanyl]-4,5,6,7-tetrahydropyrazolo[4,3-c]pyridin-2-acetic acid.trifluoroacetate] showed an IC50 ([1]; Homo sapiens, Platelet) of 80 nM.

Molecule `N=C(N)c1ccc(C(=O)N[C@@H](Cc2ccc(OCc3ccccc3)cc2)C(=O)N2CCc3nn(CC(=O)O)cc3C2)cc1` [Example I-138, 5-[N-(4-amidinobenzoyl)-L-O-benzyltyrosyl)-4,5,6,7-tetrahydropyrazolo[4,3-c]pyridin-2-acetic acid.trifluoroacetate] has an IC50 ([1]; Homo sapiens, Platelet) of 60 nM.

`N=C(N)c1ccc(C(=O)N[C@@H](Cc2ccc([N+](=O)[O-])cc2)C(=O)N2C3CCC2c2cn(CC(=O)O)nc2C3)cc1` (stereo partly drawn) [Example I-91, 5-[N-(4-amidinobenzoyl)-L-4-nitrophenylalanyl]-4,6-ethano-4,5,6,7-tetrahydropyrazolo[4,3-c]pyridin-2-acetic acid] showed an IC50 ([1]; Homo sapiens, Platelet) of 50 nM.

With `CN(C(=O)c1ccc(C(=N)N)cc1)[C@@H](Cc1ccc([N+](=O)[O-])cc1)C(=O)N1CCc2nn(CC(=O)O)cc2C1` [Example I-136, 5-[N-(4-amidinobenzoyl)-N-methyl-L-4-nitrophenylalanyl)-4,5,6,7-tetrahydropyrazolo[4,3-c]pyridin-2-acetic acid.trifluoroacetate] the IC50 ([1]; Homo sapiens, Platelet) was 60 nM.

In the case of `CCOC(=O)Cn1cc2c(n1)CCN(C(=O)[C@H](Cc1ccc([N+](=O)[O-])cc1)NC(=O)c1ccc(C(=N)NC(=O)Oc3ccccc3)cc1)C2` [Example I-115, Ethyl 5-[N-[4-(N-phenoxycarbonylamidino)benzoyl]-L-4-nitrophenylalanyl)-4,5,6,7-tetrahydropyrazolo[4,3-c]pyridin-2-acetate], the “ex vivo Platelet aggregation inhibiting ratio” value ([2]; 0.3 mg/kg p.o., 1 hr) is reported as 35%, the “ex vivo Platelet aggregation inhibiting ratio” value ([2]; 0.3 mg/kg p.o., 4 hr) is reported as 43% and the “ex vivo Platelet aggregation inhibiting ratio” value ([2]; 0.3 mg/kg p.o., 8 hr) is reported as 22%.

For `N=C(N)c1ccc(C(=O)N[C@@H](Cc2ccccc2)C(=O)N2CCc3nn(CC(=O)O)cc3C2)cc1` [Example I-128, 5-[N-(4-amidinobenzoyl)-L-phenylalanyl]-4,5,6,7-tetrahydropyrazolo[4,3-c]pyridin-2-acetic acid.trifluoroacetate], the IC50 ([1]; Homo sapiens, Platelet) was 50 nM.

In the case of `CCOC(=O)Cn1cc2c(n1)CCN(C(=O)[C@H](Cc1ccc([N+](=O)[O-])cc1)NC(=O)c1ccc(C(=N)NC(=O)OCC)cc1)C2` [Example I-77, Ethyl 5-[N-[4-(N-ethoxycarbonylamidino)benzoyl]-L-4-nitrophenylalanyl]-4,5,6,7-tetrahydropyrazolo[4,3-c]pyridin-2-acetate], the “platelet aggregation inhibiting activities even in oral administration” value [3] is reported as “excellent platelet aggregation inhibiting activities”, the sustained activity [3] is reported as “excellent sustained activity” and the “ex vivo Platelet aggregation inhibiting ratio” value ([2]; 1 mg/kg p.o., 1 hr) is reported as 60%. The “ex vivo Platelet aggregation inhibiting ratio” value ([2]; 1 mg/kg p.o., 4 hr) was 85% and the “ex vivo Platelet aggregation inhibiting ratio” value ([2]; 1 mg/kg p.o., 8 hr) was 63%.
